# Results as given in ChEMBL document CHEMBL3627608, “Crystal structures of human RIP2 kinase catalytic domain complexed with ATP-competitive inhibitors: Foundations for understanding inhibitor selectivity” (Bioorg Med Chem, 2015).
# Tests used:
# [1] = target: Serine/threonine-protein kinase OSR1 (Homo sapiens) (UniProt O95747); experiment: Inhibition of OSR1 (unknown origin) at 10 uM after 120 mins P33 radiolabeled kinase activity assay
# [2] = target: Serine/threonine-protein kinase pim-3 (Homo sapiens) (UniProt Q86V86); experiment: Inhibition of PIM3 (unknown origin) at 10 uM after 120 mins P33 radiolabeled kinase activity assay
# Homo sapiens = species on record: Homo sapiens; experiment: Inhibition of PKG2 (unknown origin) at 10 uM after 120 mins P33 radiolabeled kinase activity assay
# [3] = target: Serine/threonine-protein kinase PLK2 (Homo sapiens) (UniProt Q9NYY3); experiment: Inhibition of PLK2 (unknown origin) at 10 uM after 120 mins P33 radiolabeled kinase activity assay
# Serine/threonine-protein kinase PLK2 (Homo sapiens), sequence (Q9NYY3 whole entry, looked up): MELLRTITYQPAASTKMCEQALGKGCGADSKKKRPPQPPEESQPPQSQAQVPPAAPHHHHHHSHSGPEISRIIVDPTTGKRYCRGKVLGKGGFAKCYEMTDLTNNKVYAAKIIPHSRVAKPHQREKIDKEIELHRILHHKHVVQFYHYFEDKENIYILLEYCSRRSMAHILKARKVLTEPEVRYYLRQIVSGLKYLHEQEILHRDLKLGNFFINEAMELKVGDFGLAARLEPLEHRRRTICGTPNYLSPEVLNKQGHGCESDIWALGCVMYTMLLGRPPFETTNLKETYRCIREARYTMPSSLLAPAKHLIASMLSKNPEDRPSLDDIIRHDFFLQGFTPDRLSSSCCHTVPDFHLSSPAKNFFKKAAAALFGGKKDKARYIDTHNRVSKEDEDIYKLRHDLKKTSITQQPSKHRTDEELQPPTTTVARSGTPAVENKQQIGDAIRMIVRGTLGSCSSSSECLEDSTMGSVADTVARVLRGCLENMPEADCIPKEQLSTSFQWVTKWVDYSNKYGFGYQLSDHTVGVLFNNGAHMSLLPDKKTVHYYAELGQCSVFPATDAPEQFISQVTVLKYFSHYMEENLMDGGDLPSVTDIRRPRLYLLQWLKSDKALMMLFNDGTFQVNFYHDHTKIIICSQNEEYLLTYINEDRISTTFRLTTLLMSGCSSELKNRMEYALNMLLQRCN
# [4] = target: Insulin-like growth factor 1 receptor (Homo sapiens) (UniProt P08069); experiment: Inhibition of IGF1R (unknown origin) at 10 uM after 120 mins P33 radiolabeled kinase activity assay
# Insulin-like growth factor 1 receptor (Homo sapiens), sequence (P08069 31-736 limits assumed): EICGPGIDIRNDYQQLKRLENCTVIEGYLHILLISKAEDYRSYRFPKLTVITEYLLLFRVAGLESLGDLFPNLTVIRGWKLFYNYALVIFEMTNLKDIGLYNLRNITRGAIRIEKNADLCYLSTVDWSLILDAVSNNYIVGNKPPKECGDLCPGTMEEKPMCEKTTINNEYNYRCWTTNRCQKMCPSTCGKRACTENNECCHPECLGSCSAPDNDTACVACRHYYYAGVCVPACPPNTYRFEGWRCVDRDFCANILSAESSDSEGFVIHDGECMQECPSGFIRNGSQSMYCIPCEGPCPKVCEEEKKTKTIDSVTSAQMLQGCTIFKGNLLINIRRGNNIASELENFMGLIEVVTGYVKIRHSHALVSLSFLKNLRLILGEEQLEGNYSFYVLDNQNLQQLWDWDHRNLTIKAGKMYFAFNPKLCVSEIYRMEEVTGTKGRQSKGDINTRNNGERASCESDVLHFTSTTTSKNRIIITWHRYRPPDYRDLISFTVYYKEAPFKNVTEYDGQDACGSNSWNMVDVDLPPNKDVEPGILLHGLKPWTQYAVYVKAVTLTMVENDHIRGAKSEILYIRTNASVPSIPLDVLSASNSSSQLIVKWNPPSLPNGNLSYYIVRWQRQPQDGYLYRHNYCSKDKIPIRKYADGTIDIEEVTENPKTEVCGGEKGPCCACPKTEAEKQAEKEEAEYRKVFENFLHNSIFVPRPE
# Insulin-like growth factor 1 receptor (Homo sapiens), sequence (P08069 741-1367 limits assumed): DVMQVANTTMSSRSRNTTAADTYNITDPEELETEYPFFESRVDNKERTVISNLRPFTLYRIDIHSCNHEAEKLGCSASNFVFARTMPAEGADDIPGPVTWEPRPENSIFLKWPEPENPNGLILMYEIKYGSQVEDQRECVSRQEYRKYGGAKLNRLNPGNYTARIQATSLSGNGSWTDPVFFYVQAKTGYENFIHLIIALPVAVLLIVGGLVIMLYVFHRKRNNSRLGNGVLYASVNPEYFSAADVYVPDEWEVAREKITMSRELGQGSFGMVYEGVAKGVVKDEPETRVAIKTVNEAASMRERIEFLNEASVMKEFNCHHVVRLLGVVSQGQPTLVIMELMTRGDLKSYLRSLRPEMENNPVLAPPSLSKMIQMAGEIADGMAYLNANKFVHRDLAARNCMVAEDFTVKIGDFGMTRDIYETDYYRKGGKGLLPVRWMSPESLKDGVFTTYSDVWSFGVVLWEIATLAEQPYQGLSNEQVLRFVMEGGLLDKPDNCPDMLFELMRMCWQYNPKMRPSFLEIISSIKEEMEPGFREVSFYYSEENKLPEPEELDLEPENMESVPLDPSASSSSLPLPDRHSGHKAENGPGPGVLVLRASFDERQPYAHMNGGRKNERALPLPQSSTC
# [5] = target: T1, Serine/threonine-protein kinase LATS2 (Homo sapiens) (UniProt Q9NRM7); experiment: Inhibition of LATS2 (unknown origin) at 10 uM after 120 mins P33 radiolabeled kinase activity assay
# T1 sequence (whole entry): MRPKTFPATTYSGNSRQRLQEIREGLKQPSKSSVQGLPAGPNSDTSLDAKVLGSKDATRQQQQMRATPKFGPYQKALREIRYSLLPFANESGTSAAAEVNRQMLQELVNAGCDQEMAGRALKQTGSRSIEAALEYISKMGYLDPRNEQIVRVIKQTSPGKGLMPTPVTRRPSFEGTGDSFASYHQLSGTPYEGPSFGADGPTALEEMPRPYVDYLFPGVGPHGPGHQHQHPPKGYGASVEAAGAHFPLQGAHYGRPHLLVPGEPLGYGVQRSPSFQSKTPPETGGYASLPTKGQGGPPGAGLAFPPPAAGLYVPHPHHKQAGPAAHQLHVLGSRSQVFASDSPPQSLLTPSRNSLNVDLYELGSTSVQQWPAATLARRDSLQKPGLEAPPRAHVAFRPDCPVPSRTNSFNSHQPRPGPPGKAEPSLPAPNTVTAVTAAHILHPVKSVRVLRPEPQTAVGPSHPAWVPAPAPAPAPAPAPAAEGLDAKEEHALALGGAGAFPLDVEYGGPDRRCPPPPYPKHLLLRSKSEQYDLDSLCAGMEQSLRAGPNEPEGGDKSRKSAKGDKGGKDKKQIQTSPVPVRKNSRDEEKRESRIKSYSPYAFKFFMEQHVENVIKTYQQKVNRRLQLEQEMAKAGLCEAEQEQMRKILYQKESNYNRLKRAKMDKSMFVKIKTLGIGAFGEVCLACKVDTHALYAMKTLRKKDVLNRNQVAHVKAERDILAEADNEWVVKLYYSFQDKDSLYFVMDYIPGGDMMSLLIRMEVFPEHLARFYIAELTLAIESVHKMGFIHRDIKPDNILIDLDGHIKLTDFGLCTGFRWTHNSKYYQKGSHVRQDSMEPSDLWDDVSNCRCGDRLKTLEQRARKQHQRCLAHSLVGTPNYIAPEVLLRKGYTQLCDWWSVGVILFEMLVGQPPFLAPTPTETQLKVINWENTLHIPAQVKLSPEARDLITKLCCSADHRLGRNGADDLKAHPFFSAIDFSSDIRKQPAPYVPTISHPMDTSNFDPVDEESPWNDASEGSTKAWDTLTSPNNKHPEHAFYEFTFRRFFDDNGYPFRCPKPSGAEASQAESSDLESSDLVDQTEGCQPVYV
# [6] = target: T2, MAP kinase-activated protein kinase 5 (Homo sapiens) (UniProt Q8IW41); experiment: Inhibition of MAPKAPK5 (unknown origin) at 10 uM after 120 mins P33 radiolabeled kinase activity assay
# T2 sequence (whole entry): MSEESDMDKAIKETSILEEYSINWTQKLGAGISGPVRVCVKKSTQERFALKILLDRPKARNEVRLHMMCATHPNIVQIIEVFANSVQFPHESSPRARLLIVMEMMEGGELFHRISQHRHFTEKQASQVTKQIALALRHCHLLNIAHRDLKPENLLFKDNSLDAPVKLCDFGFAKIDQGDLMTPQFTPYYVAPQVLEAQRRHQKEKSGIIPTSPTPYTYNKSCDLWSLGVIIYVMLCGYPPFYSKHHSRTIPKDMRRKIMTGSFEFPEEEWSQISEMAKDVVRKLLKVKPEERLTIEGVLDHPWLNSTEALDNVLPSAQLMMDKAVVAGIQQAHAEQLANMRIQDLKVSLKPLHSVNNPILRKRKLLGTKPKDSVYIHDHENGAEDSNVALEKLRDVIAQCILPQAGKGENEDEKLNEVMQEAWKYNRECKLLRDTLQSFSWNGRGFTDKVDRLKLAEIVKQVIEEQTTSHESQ
# [7] = target: T3, Serine/threonine-protein kinase BRSK2 (Homo sapiens) (UniProt Q8IWQ3); experiment: Inhibition of BRSK2 (unknown origin) at 10 uM after 120 mins P33 radiolabeled kinase activity assay
# T3 sequence (whole entry): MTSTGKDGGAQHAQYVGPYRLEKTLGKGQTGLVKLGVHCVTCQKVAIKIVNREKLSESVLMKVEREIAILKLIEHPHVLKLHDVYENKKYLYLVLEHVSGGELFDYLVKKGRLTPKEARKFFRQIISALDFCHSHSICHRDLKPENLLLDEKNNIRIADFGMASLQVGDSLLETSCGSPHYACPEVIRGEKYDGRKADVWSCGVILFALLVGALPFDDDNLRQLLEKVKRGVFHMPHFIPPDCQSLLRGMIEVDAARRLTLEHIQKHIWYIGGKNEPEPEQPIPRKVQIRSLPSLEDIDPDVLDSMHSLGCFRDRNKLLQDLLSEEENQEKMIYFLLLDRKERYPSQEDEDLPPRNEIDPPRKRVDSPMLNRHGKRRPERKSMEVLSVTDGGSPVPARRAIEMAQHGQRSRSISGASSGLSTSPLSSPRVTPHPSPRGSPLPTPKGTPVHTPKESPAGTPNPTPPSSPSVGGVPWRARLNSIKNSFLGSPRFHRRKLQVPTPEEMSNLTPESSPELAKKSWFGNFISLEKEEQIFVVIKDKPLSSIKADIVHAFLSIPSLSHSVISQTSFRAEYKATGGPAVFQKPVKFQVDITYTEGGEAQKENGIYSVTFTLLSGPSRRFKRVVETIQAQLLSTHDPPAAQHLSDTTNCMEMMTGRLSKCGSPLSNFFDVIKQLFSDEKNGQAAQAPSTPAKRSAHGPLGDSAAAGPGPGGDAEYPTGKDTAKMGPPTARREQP
# [8] = target: Calcium/calmodulin-dependent protein kinase type 1B (Homo sapiens) (UniProt Q6P2M8); experiment: Inhibition of CAMK1beta (unknown origin) at 10 uM after 120 mins P33 radiolabeled kinase activity assay
# Calcium/calmodulin-dependent protein kinase type 1B (Homo sapiens), sequence (Q6P2M8 whole entry): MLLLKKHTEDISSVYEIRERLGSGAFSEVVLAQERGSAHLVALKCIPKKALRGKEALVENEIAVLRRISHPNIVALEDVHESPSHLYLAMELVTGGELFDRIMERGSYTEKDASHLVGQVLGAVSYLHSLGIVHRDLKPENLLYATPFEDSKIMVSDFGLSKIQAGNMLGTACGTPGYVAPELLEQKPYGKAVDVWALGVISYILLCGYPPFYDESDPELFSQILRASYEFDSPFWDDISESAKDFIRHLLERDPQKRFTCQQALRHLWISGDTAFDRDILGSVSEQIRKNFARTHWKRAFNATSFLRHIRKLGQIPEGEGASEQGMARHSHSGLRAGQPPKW
# [9] = target: CDK2/Cyclin A1 (Homo sapiens) (UniProt P24941+P78396); experiment: Inhibition of CDK2/Cyclin A1 (unknown origin) at 10 uM after 120 mins P33 radiolabeled kinase activity assay; type: protein-complex assay
# Serine/threonine-protein kinase OSR1 (Homo sapiens), sequence (O95747 2-527 limits assumed): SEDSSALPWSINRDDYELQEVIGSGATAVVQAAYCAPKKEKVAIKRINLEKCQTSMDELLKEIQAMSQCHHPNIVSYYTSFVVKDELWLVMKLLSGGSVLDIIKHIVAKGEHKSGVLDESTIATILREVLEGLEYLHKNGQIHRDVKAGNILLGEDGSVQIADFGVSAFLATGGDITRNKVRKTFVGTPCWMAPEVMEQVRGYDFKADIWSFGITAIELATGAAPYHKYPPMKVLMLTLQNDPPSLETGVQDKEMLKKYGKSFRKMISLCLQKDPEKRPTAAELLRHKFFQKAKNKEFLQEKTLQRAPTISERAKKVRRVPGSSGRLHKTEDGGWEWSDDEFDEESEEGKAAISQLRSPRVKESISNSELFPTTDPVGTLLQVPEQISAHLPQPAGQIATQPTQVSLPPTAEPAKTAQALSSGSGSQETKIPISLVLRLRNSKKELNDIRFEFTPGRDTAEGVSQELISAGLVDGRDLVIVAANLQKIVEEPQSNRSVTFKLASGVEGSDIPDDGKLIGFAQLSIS
inhibition [1] [%],inhibition [2] [%],inhibition (Homo sapiens) [%],inhibition [3] [%],inhibition [4] [%],inhibition [5] [%],inhibition [6] [%],inhibition [7] [%],inhibition [8] [%],inhibition [9] [%],SMILES
10.1,17.3,8.73,7.04,9.14,21.9,4.25,34,46.8,43.5,CS(=O)(=O)c1cccc(Nc2nccc(-c3sc(N4CCOCC4)nc3-c3cccc(NS(=O)(=O)c4c(F)cccc4F)c3)n2)c1
3.1,3.38,-5.6,1.52,2.21,2.32,5.26,26.4,2.47,18.1,COCCNC(=O)c1ccc2c(c1)nc(-c1cnc(-c3ccc(Cl)cc3)[nH]1)n2CCOC
22.6,69.2,6.69,2.47,2.82,50.2,-1.68,18.2,9.84,51.4,CC(C)(C)c1cc(NC(=O)Nc2ccc(Oc3ccncc3)cc2)no1
